In the NIST ThermoML archive (doi:10.1016/j.jct.2005.04.010):

Assays:
[1] = 101.33 kPa, Liquid
[2] = wn = mass fraction of the nth substance listed; conditions: 101 kPa, Liquid, w1 = 0.5

CCCCCCCCn1cc[n+](C)c1.O=S(=O)([N-]S(=O)(=O)C(F)(F)F)C(F)(F)F
[1]
Conditions | mass density [kg/m3]
298.15 K | 1325
303.15 K | 1320
308.15 K | 1316
313.15 K | 1311
318.15 K | 1307
323.15 K | 1303
328.15 K | 1298
333.15 K | 1294
338.15 K | 1289
343.15 K | 1285

CCCC[N+]1(C)CCCC1.O=S(=O)([N-]S(=O)(=O)C(F)(F)F)C(F)(F)F
[1]
Conditions | mass density [kg/m3]
298.15 K | 1394
303.15 K | 1390
308.15 K | 1388
313.15 K | 1386
318.15 K | 1383
323.15 K | 1381
328.15 K | 1379
333.15 K | 1377
338.15 K | 1373
343.15 K | 1370
348.15 K | 1366

CCn1cc[n+](C)c1.O=S(=O)([N-]S(=O)(=O)C(F)(F)F)C(F)(F)F + CCCC[n+]1ccn(C)c1.O=S(=O)([N-]S(=O)(=O)C(F)(F)F)C(F)(F)F
[2]
Conditions | mass density [kg/m3]
293.15 K | 1483
298.15 K | 1479
303.15 K | 1474
308.15 K | 1469
313.15 K | 1464
318.15 K | 1459
323.15 K | 1454
328.15 K | 1449
333.15 K | 1445
338.15 K | 1440
343.15 K | 1435
348.15 K | 1430
353.15 K | 1425
358.15 K | 1421
